Results published in patent US5204326.
Where two headings read alike, the source gives them in different places.

Details: amide bond
[1] = the molecule shown is the open-chain precursor, 23-membered ring, as Reference Example 8 (not in excerpt), 3 steps

Q: With Acp-Asn-Leu-Ser(Bzl)-Thr(Bzl)-Asp-OEt as the substance, how does the ring closure, isolated yield (23-membered ring, ONp active ester (from TFA-ONp)/pyridine, pyridine/DMF, 50.0 °C, 3 steps) read?
A: Its ring closure, isolated yield is 26.6%.

Q: For “H-Abu-Asn-Leu-Ser(Bzl)-Thr(Bzl)-Cec(ONp)-OMe?”, which ring closure, isolated yield (the molecule shown is the open-chain precursor, as Reference Example 8 (not in excerpt), 3 steps) is on record?
A: The ring closure, isolated yield was 47.1%.

Q: For “H-Asn-Leu-Ser(Bzl)-Thr(Bzl)-Lys(COCH2CH2CO-ONp)-OMe?”, which ring closure, isolated yield [1] is on record?
A: Its ring closure, isolated yield is 34.9%.

Q: Which ring closure, isolated yield [1] does the source give for “H-Ser(Bzl)-Asn-Leu-Ser(Bzl)-Thr(Bzl)-Cpc(ONp)-OMe?” here?
A: The ring closure, isolated yield was 55.9%.

Q: For “H-Ser(Bzl)-Asn-Leu-Ser(Bzl)-Thr(Bzl)-Tyr(CH2CO-ONp)-OMe?”, which ring closure, isolated yield (the molecule shown is the open-chain precursor, 25-membered ring, as Reference Example 8, then Reference Example 9 (not in excerpt), 4 steps) is on record?
A: The ring closure, isolated yield was 43.8%.
